Results published in ChEMBL document CHEMBL2412999, “Anticonvulsant properties of histamine H3 receptor ligands belonging to N-substituted carbamates of imidazopropanol” (Bioorg Med Chem Lett, 2013).
Activity calls are given as the source filed them. The rule behind the calls is not given here.

Tests used:
Histamine H4 receptor = Histamine H4 receptor (Homo sapiens, UniProt Q9H3N8); assay: Displacement of [3H]histamine from human histamine H4 receptor expressed in Sf9 cells co-expressing Gai2 and Gb1c2 subunit
[1] = target: Histamine H2 receptor (Cavia porcellus) (UniProt P47747); assay: Antagonist activity at histamine H2 receptor in guinea pig atrium; conditions: Cardiac atrium
Mus musculus = assay: In vivo inhibition of histamine H3 receptor in po dosed mouse assessed as Nt-methylhistamine level in brain; assay type: functional
Histamine H3 receptor = Histamine H3 receptor (Homo sapiens, UniProt Q9Y5N1); assay: Displacement of [125I]iodoproxyfan from human histamine H3 receptor expressed in CHO-K1 cells; assay type: cell-based
[2] = target: Histamine H1 receptor (Cavia porcellus) (UniProt P31389); assay: Antagonist activity at histamine H1 receptor in guinea pig ileum; assay type: tissue-based
Rattus norvegicus [3] = assay: Anticonvulsant activity in Wistar rat assessed as protection against maximum electric shock-induced tonic hind limb extension at 10 mg/kg, ip; assay type: functional, organism-based; set-up: dose 10 mg/kg; conditions: Hindlimb
Rattus norvegicus [4] = assay: Anticonvulsant activity in Wistar rat assessed as protection against pentylenetetrazole-induced seizure at 10 mg/kg, ip after 30 mins; assay type: functional, organism-based; set-up: dose 10 mg/kg
Rattus norvegicus [5] = assay: Anticonvulsant activity in Wistar rat assessed as protection against maximum electric shock-induced tonic hind limb extension at 5 mg/kg, ip; assay type: functional, organism-based; set-up: dose 5 mg/kg; conditions: Hindlimb
Rattus norvegicus [6] = assay: Anticonvulsant activity in Wistar rat assessed as protection against maximum electric shock-induced tonic hind limb extension at 10 to 15 mg/kg, ip; assay type: functional, organism-based; conditions: Hindlimb
Rattus norvegicus [7] = assay: Anticonvulsant activity in Wistar rat assessed as protection against pentylenetetrazole-induced seizure at 10 mg/kg, ip after 5 to 10 mins; assay type: functional, organism-based; set-up: dose 10 mg/kg
Rattus norvegicus [8] = assay: Anticonvulsant activity in Wistar rat assessed as protection against maximum electric shock-induced tonic hind limb extension at 10 mg/kg, ip in presence of histamine H1R antagonist pyrilamine; assay type: functional, organism-based; set-up: dose 10 mg/kg; conditions: Hindlimb
Rattus norvegicus [9] = assay: Anticonvulsant activity in Wistar rat assessed as protection against maximum electric shock-induced tonic hind limb extension at 10 mg/kg, ip in presence of histamine H3R agonist RAMH; assay type: functional, organism-based; set-up: dose 10 mg/kg; conditions: Hindlimb
Rattus norvegicus [10] = assay: Anticonvulsant activity in Wistar rat assessed as protection against maximum electric shock-induced tonic hind limb extension at 15 mg/kg, ip; assay type: functional, organism-based; set-up: dose 15 mg/kg; conditions: Hindlimb
Rattus norvegicus [11] = assay: Anticonvulsant activity in ip dosed Wistar rat assessed as protection against maximum electric shock-induced tonic hind limb extension; assay type: functional, organism-based; conditions: Hindlimb

Histamine H1 receptor (Cavia porcellus), sequence (P31389 whole entry): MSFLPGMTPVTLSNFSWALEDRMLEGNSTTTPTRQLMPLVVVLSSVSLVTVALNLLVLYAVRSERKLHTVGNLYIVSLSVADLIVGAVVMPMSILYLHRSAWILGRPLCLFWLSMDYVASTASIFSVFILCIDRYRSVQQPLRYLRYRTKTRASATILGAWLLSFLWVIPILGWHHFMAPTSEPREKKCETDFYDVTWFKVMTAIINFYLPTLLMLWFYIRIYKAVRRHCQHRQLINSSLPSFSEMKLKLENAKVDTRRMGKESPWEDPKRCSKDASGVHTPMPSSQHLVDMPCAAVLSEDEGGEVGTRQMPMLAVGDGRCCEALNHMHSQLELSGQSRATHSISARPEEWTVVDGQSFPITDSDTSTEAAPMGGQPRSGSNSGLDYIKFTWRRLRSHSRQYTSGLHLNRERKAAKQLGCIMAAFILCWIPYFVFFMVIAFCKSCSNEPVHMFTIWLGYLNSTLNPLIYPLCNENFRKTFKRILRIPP
Histamine H4 receptor, sequence (Q9H3N8 whole entry): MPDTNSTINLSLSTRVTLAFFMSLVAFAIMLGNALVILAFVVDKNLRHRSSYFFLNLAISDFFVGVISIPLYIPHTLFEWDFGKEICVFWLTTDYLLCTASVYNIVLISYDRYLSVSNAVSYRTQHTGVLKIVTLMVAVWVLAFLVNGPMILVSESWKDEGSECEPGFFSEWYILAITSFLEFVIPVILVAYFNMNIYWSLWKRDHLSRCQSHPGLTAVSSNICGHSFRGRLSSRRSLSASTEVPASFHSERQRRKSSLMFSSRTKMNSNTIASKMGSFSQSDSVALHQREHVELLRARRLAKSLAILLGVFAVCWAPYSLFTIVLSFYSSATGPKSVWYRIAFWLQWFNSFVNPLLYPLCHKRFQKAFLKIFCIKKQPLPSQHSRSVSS
Histamine H3 receptor, sequence (Q9Y5N1 whole entry): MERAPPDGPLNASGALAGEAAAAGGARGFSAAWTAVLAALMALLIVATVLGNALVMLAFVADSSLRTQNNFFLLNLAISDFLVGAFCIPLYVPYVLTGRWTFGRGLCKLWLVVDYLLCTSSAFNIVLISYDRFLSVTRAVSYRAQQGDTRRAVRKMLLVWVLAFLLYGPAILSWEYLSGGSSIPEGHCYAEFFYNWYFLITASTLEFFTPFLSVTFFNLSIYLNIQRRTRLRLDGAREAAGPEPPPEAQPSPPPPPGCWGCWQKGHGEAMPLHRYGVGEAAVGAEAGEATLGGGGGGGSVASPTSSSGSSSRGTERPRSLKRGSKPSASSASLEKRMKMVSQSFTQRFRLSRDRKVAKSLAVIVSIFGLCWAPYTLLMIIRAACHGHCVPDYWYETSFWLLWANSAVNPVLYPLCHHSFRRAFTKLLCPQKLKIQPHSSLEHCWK
Histamine H2 receptor (Cavia porcellus), sequence (P47747 whole entry): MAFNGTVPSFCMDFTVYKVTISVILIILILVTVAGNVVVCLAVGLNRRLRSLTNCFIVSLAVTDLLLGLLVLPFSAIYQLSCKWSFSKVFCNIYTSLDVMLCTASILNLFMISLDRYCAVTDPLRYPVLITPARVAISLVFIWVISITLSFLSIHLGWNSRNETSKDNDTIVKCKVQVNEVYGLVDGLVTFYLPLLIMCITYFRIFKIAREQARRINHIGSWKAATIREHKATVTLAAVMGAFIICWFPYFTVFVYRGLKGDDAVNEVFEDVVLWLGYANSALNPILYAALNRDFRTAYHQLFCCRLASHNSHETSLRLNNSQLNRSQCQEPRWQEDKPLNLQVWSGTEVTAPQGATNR

Row | Structure (SMILES) | Ki (Histamine H4 receptor) | pKb [1] | Ki (Histamine H3 receptor) | pKb [2] | Activity (Rattus norvegicus [3]) | also measured
1 | O=C(NCCc1ccc(Cl)cc1)OCCCc1c[nH]cn1 | 6760 nM | 4.41 | 427 nM | 4.82 |  | ED50 (Mus musculus): 3.1 mg/kg
2 | S=C(NC1CCCCC1)N1CCC(c2cnc[nH]2)CC1 |  | < 5 |  | < 5 | Active | 
3 | O=C1NC(=O)C(c2ccccc2)(c2ccccc2)N1 |  |  |  |  | Active | Activity (Rattus norvegicus [4]): Active; Activity (Rattus norvegicus [5]): inactive; Activity (Rattus norvegicus [6]): Active
4 | O=C(NCCC1CCCCC1)OCCCc1c[nH]cn1 | 1550 nM | 4.49 | 251 nM | 3.96 |  | 
5 | O=C(NCCC1CC1)OCCCc1c[nH]cn1 | 1550 nM | 3.5 | 170 nM | 3.8 |  | 
6 | O=C(NCCCCOc1ccccc1)OCCCc1c[nH]cn1 | > 100000 nM | 4.78 | 1050 nM | 4.27 |  | ED50 (Mus musculus): 5.8 mg/kg
7 | C[C@@H](N)Cc1c[nH]cn1 |  |  |  |  | inactive | 
8 | CCC/C=C/CNC(=O)OCCCc1c[nH]cn1 | 7080 nM |  | 240 nM |  | Active | 
9 | COc1ccc(CN(CCN(C)C)c2ccccn2)cc1 |  |  |  |  | inactive | 
10 | O=C(NCCOc1ccccc1Cl)OCCCc1c[nH]cn1 | 16200 nM |  | 708 nM |  | Active | ED50 (Mus musculus): 2.2 mg/kg
11 | CC/C=C/CCNC(=O)OCCCc1c[nH]cn1 | 13200 nM |  | 257 nM |  |  | 
12 | O=C(NCCCC1CCCCC1)OCCCc1c[nH]cn1 | 4470 nM | 4.94 | 851 nM | 4.97 |  | 
13 | CCC(C)CCNC(=O)OCCCc1c[nH]cn1 (stereo not drawn) | 1230 nM |  | 129 nM |  | Active | Activity (Rattus norvegicus [6]): Active; ED50 (Mus musculus): 2 mg/kg
14 | O=C(NCCCCC1CCCCC1)OCCCc1c[nH]cn1 | 5010 nM | 4.61 | 1950 nM | < 5.52 | Active | Activity (Rattus norvegicus [6]): Active
15 | C=CCCCNC(=O)OCCCc1c[nH]cn1 | 41700 nM | 3.6 | 141 nM | 3.9 | Active | Activity (Rattus norvegicus [7]): Active; Activity (Rattus norvegicus [5]): Active; Activity (Rattus norvegicus [8]): inactive; Activity (Rattus norvegicus [9]): inactive; Activity (Rattus norvegicus [10]): Active; Activity (Rattus norvegicus [11]): Dose-dependent effect
16 | C=CCCNC(=O)OCCCc1c[nH]cn1 | 3800 nM | < 4 |  | < 4 | Active | Activity (Rattus norvegicus [6]): Active
17 | O=C(NCCCOc1ccccc1)OCCCc1c[nH]cn1 | > 100000 nM | 4.26 | 1290 nM | 4.34 | Active | ED50 (Mus musculus): 4.1 mg/kg
